Test results from ChEMBL document CHEMBL1201862, “PubChem BioAssay data set” (2004).
Calls of active or inactive are those of the source.

Experiments:
Paired box protein Pax-8 = Paired box protein Pax-8 (Homo sapiens, UniProt Q06710); assay: inhibitors of PAX8-driven TPO luciferase reporter, dose response, RMG-I cells, cherry-pick (AID 687027); type: functional, cell-based;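 also: luciferase reporter driven by Pax8 target thyroperoxidase promoter measured by SteadyGlo luminescence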
[1] = NIH:OVCAR-3 ovarian cancer cell cytotoxicity, dose response, PAX8 inhibitor project, plate reader, dry powder samples (AID 743044); type: functional, cell-based
[2] = cytotoxicity in OVCAR8 ovarian cancer cells, dose response, PAX8 project, cell-based, plate reader, dry powder samples (AID 743197); type: functional; details: OVCAR-8
[3] = P. falciparum Dd2 growth inhibitors, dose response, SYBR Green, cherry-picked samples (AID 1159567); type: functional, cell-based
[4] = HEp-2 cell cytotoxicity, dose response, cytotoxicity control for RSV inhibitor project, HTS (AID 2410); type: functional; details: human respiratory syncytial virus
Vero [5] = assay: cells; type: functional, cell-based; details: Chlorocebus sabaeus
cells [6] = assay: cells
[7] = NIH-3T3 fibroblast cytotoxicity, dose response, cytotoxicity control, cell-based, fluorescence, Alamar Blue, secondary assay (AID 2327); type: functional;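 also: NIH-3T3 mouse fibroblasts cultured with fluconazole at 8 µg/mL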
[8] = C. albicans growth with fluconazole, confirmation, fluorescence, retest (AID 2467); type: functional, cell-based
[9] = target: Disintegrin and metalloproteinase domain-containing protein 17 (Homo sapiens, UniProt P78536); assay: exosite inhibitors of ADAM17, dose response, biochemical (AID 743260)
Sequence of Disintegrin and metalloproteinase domain-containing protein 17 (P78536 whole entry, the tested form may be a part): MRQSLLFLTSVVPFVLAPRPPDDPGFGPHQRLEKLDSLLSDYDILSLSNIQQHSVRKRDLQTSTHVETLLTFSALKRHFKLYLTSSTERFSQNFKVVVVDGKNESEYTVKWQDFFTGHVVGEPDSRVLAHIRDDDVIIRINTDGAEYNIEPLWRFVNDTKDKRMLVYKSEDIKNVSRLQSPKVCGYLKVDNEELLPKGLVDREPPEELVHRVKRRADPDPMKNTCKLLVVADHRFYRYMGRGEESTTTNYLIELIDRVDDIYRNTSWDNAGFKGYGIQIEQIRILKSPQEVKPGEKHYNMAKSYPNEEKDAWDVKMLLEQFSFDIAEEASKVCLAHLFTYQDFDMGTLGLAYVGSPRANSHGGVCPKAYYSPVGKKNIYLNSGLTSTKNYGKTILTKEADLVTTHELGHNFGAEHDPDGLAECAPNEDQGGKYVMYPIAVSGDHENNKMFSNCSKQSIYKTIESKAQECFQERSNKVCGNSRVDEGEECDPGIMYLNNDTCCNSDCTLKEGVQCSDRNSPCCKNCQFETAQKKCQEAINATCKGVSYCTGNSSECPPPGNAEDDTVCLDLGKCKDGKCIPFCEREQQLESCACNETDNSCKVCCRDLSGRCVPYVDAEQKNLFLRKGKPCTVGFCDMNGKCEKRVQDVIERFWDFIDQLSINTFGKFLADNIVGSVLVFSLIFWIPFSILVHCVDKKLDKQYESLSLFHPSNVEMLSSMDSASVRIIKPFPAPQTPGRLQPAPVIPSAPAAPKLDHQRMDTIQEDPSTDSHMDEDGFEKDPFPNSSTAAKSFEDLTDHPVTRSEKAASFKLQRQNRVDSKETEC

[10] = ADAM10 protease inhibitors, dose response, selectivity assay for ADAM17 exosite inhibitor project, biochemical, FRET peptide substrate, recombinant human ADAM10 (AID 743259);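 also: ADAM10 enzyme cleaving a FRET peptide substrate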
[11] = target: Ras and Rab interactor 1/Tyrosine-protein kinase ABL1 (Homo sapiens, UniProt P00519+Q13671); type: functional;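 also: biochemical TR-FRET dose-response test measuring inhibition of binding between Rin1 and Abl proteins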
Sequence of Ras and Rab interactor 1/Tyrosine-protein kinase ABL1 (P00519 whole entry): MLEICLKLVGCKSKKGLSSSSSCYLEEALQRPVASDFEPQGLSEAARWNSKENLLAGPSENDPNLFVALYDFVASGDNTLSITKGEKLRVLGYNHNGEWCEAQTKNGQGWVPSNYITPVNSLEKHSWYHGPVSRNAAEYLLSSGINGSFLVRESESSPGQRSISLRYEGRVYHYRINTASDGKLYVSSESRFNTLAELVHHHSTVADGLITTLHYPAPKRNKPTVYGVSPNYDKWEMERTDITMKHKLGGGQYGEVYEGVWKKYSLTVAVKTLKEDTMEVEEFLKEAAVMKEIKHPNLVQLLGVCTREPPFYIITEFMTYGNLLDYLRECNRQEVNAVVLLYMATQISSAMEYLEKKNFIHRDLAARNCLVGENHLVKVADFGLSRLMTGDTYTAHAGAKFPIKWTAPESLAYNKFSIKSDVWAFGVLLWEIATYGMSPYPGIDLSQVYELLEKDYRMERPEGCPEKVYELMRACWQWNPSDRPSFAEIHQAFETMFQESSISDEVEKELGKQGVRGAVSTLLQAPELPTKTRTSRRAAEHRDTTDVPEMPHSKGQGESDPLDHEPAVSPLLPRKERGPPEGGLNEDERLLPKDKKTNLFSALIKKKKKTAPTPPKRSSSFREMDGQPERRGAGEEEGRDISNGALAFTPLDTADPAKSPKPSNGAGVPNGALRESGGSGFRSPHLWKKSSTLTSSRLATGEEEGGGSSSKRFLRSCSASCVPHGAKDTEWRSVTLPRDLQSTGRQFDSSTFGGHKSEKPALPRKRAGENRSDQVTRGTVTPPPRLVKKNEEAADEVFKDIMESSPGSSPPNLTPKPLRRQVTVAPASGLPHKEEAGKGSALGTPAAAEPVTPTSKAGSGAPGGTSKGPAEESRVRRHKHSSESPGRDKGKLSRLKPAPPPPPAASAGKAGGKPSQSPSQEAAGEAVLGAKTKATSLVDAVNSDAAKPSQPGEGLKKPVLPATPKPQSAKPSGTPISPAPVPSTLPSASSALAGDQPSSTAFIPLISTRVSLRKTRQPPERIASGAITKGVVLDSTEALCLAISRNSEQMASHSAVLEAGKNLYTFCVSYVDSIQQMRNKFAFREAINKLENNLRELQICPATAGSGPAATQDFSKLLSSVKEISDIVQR
Sequence of Ras and Rab interactor 1/Tyrosine-protein kinase ABL1 (Q13671 whole entry): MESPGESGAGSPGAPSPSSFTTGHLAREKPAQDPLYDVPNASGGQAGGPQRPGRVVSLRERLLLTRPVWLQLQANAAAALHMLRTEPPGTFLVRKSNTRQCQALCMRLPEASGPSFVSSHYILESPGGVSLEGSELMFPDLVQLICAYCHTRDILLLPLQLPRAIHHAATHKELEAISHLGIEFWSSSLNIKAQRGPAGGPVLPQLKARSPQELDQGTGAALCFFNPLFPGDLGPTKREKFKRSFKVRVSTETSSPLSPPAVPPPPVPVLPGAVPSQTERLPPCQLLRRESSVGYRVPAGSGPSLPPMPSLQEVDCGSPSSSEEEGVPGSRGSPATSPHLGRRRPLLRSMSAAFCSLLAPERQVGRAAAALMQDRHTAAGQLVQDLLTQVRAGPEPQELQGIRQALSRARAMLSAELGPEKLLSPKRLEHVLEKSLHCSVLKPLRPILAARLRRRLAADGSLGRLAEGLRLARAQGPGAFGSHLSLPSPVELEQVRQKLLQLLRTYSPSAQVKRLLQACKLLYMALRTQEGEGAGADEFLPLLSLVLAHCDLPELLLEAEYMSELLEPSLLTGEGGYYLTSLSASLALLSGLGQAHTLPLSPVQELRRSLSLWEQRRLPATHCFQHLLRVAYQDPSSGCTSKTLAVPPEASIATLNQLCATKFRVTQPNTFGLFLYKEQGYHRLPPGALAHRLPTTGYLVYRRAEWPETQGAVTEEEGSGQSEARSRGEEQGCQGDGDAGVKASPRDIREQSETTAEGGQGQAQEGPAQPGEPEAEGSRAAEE

[12] = inhibitors of firefly luciferase expression or activity, dose response, H4 neuroglioma cells, luminescence (AID 1990); type: functional, cell-based
[13] = luciferase reporter signal reduction – luminescence, H4-C neuroglioblastoma cells, dose response (AID 2458); type: functional, cell-based;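 also: H4 neuroglioblastoma cells stably carrying a luciferase reporter gene fusion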
cells [14] = type: functional, cell-based
[15] = Luminescence Cell-Based Dose Response HTS to Identify Inhibitors of 5'UTR Stem-Loop Driven Prion Protein mRNA Translation in H4 Neuroglioblastoma Cells. [Related pubchem assays: 1827 (Project Summary), 1813 (Primary HTS)]; type: functional
[16] = inhibitors of SNCA 5'UTR-driven reporter translation, confirmation, H4 neuroglioma cells, luminescence (AID 1988); type: functional, cell-based
[17] = inhibitors of SNCA 5'UTR-driven translation, confirmation, luminescence, H4 neuroglioblastoma cells, dose confirmation (AID 2454); type: functional, cell-based;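 also: H4 neuroglioblastoma cells carrying an alpha-synuclein 5'UTR luciferase reporter; potency for inhibition of the luciferase signal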
[18] = cytotoxicity in HEK-293T cells, dose response, cytotoxicity control for TCR NF-kB inhibitor project, luminescence, T-cell screen hits (AID 489026); type: functional, cell-based;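 also: cells exposed to compound about 14 hours before the viability readout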
[19] = THP-1 cell cytotoxicity, dose response, cytotoxicity control for Vif-APOBEC3G degradation inhibitor project, THP-1 cells (AID 1117359); type: functional; details: Human immunodeficiency virus 1, THP-1
[20] = Luminescence Cell-Based Dose Confirmation HTS to Identify Activators of 5'UTR Stem-Loop Driven Alpha-Synuclein mRNA Translation in H4 Neuroglioblastoma Cells. [Related pubchem assays: 1829 (Project Summary), 1814 (Primary HTS)]; type: functional
[21] = Luminescence Cell-Based Dose Response HTS to Identify Activators of Luciferase Translation or Activity in H4 […] Cells. [Related pubchem assays: 1829 (Project Summary), 1814 (Primary HTS)]; type: functional
H4 = assay: Luminescence Cell-Based Dose Response HTS to Identify Activators of 5'UTR Stem-Loop Driven Prion Protein mRNA Translation in H4 Neuroglioblastoma Cells. [Related pubchem assays: 1829 (Project Summary), 1814 (Primary HTS)]; type: functional; details: Homo sapiens
[22] = test system: Streptococcus sp. 'group A'; assay: growth inhibition of control SK(-) GAS strain, dose response, counter-screen for streptokinase expression inhibitor project, luminescence, kanamycin, BacTiterGlo, confirmation (AID 1900); type: functional, organism-based
Streptococcus = assay: Group A Streptococcus viability loss, dose response, counter-screen for streptokinase expression inhibitor project, luminescence, BacTiterGlo (AID 1915); type: functional, organism-based;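 also: potency for reduction of bacterial viability or growth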
Beta-galactosidase = Beta-galactosidase (Escherichia coli, UniProt Q8VNN2); assay: beta-galactosidase enzyme inhibitors and activators, dose response, artefact control for CCR6 antagonist project, biochemical, E. coli enzyme, set 3 (AID 504712); type: functional
Sequence of Beta-galactosidase (Q8VNN2 whole entry): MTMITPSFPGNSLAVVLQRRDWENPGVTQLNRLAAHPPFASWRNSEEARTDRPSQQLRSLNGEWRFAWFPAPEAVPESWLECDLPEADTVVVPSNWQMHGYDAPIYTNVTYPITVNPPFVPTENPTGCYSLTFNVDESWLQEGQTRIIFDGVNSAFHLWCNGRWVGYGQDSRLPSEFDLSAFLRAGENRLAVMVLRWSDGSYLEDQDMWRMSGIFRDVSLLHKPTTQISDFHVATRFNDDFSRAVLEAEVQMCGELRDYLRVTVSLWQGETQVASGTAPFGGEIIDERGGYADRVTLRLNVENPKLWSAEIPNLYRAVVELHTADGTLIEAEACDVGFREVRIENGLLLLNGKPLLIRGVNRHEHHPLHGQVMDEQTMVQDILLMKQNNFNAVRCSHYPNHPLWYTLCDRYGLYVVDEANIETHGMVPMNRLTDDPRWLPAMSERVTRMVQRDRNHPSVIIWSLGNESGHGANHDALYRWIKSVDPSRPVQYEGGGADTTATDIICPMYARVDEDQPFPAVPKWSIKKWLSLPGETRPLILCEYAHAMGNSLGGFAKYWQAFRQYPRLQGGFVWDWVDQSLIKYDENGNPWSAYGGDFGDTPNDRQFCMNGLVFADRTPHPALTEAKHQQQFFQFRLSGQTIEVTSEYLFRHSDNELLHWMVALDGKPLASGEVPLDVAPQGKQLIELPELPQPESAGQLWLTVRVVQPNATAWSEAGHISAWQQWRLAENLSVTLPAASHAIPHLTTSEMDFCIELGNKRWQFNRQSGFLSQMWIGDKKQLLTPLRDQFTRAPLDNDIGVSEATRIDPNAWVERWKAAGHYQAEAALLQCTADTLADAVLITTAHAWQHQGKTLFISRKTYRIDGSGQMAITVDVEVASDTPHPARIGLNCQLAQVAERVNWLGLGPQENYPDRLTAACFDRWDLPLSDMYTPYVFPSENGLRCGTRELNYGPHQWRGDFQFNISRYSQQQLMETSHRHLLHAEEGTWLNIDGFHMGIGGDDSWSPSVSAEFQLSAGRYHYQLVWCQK

[23] = target: T1, Short transient receptor potential channel 4 (Mus musculus, UniProt Q9QUQ5); assay: mouse TRPC4 channel activators, dose response, cell-based, HEK293 TRPC4/mu-opioid, Fluo-4 calcium (AID 434937); type: functional
T1 sequence (Q9QUQ5 whole entry): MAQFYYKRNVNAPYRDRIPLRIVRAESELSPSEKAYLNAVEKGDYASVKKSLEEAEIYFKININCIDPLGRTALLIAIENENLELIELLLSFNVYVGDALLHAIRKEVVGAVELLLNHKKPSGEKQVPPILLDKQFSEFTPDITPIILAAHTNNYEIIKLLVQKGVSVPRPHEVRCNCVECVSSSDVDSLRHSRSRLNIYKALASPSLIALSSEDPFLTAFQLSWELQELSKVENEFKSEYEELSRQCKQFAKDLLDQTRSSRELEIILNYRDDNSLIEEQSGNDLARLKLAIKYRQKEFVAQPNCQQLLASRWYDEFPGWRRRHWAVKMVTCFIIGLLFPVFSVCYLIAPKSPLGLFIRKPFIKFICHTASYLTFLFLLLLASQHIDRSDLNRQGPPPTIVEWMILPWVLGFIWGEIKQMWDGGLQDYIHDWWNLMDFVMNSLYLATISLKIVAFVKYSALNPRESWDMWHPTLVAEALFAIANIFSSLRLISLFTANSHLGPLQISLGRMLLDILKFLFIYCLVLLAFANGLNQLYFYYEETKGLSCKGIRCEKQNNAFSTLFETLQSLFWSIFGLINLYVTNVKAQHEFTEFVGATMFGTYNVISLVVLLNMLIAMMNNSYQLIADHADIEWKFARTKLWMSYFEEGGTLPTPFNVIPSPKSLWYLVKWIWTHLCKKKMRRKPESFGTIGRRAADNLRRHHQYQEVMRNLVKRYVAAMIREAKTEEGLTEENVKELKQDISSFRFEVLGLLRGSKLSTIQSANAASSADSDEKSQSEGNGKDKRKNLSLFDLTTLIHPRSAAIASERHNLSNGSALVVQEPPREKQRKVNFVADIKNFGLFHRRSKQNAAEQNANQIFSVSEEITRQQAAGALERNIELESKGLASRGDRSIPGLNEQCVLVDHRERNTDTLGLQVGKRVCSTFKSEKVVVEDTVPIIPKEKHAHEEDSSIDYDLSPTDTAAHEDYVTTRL

Vero [24] = assay: cells; type: functional; details: Chlorocebus sabaeus
[25] = Luminescence-based cell-based high throughput dose response assay to identify activators of the DAF-12 from the parasite S. stercoralis (ssDAF-12).; type: functional
CHO = assay: cytotoxicity in TLR9-MyD88 CHO cells, dose response, cytotoxicity control for TLR9-MyD88 binding inhibitor project, cell-based, luminescence (AID 588339); type: functional, hamster; details: Cricetulus griseus;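 also: CHO cells stably coexpressing TLR9 and MyD88 fusions from primary screen; compound exposure lasted 48 hours before viability readout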
Beta Lactamase = Beta Lactamase (Pseudomonas aeruginosa, UniProt Q932Y6); assay: beta-lactamase reporter inhibitor potency, dose response, artefact control for TLR9-MyD88 binding inhibitor project, BLA reporter cells, FRET fluorescence (AID 588341); type: cell-based;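 also: cell based assay in CHO-K1 cells stably expressing beta-lactamase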
Sequence of Beta Lactamase (Q932Y6 whole entry): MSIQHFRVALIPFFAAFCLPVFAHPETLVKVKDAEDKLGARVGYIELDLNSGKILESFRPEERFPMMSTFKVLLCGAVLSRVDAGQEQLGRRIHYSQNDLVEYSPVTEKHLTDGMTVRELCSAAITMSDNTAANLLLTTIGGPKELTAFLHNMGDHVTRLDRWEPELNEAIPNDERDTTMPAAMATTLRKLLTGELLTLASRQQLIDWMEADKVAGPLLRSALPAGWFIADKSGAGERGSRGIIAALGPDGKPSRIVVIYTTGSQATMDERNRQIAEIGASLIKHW

[26] = growth suppression of PTEN-null colon cells, dose response, cell-based, HCT116 PTEN knockout (AID 1047); type: functional;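 also: HCT116 colon tumor cells with PTEN knocked out; cells exposed to compound for 60 hours before readout; potency for loss of cell viability measured by luminescence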
[27] = growth suppression of beta-catenin-knockout colon cells, dose response, cell-based, HCT116, human colon tumor (AID 1045); type: functional;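 also: HCT116 colon tumor cells with beta catenin knocked out; cells exposed to compound for 60 hours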
[28] = Shn3 3'UTR reporter inhibitors, dose response, cell-based, Clone20 osteoblasts, firefly luciferase, cherry-picked (AID 624132); type: functional;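 also: firefly luciferase luminescence from reporter carrying the Shn3 3'UTR in osteoblasts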
[29] = HepG2 cell cytotoxicity, dose response, cytotoxicity control for Shn3 inhibitor project, CellTiter-Glo, cherry-picked (AID 624134); type: functional, cell-based
[30] = control 3'UTR Renilla luciferase suppression, dose response, counter-screen for Shn3 inhibitor project, cell-based, Clone20-Shn3RL, cherry-picked (AID 624133); type: functional

Sequence of Paired box protein Pax-8 (Q06710 whole entry): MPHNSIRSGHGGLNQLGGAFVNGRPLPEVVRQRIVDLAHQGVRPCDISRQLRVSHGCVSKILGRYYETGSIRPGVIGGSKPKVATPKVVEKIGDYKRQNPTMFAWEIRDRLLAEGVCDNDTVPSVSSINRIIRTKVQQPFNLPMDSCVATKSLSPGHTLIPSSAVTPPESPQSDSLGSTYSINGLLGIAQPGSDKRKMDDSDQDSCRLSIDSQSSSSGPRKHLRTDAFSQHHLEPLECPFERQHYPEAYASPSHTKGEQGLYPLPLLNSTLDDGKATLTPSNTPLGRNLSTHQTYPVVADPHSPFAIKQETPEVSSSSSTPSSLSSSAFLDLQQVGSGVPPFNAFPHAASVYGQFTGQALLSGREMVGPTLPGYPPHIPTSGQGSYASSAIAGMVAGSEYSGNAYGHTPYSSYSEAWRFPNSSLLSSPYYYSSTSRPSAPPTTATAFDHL

CC(C)CC#Cc1ccc2c(c1)O[C@H](CN(C)S(=O)(=O)c1ccc(F)cc1)[C@@H](C)CN([C@@H](C)CO)S2(=O)=O
AC50 (Paired box protein Pax-8): 10.3 µM (active)
AC50 [1]: 49.7 µM (active)
AC50 [2]: > 70 µM (inactive)
AC50 [3]: 5.25 µM (active)

Cc1cc(NC(=O)COC(=O)c2c(Cl)cccc2Cl)no1
CC50 [4]: > 50 µM (active)
IC50 (Vero [5]): > 25 µM (active)
IC50 (cells [6]): 21.8 µM (active)

O=[N+]([O-])CC(c1ccccc1)P(=O)(c1ccccc1)c1ccccc1 (stereo not given)
EC50 [7]: > 160 µM (inactive)
EC50 [8]: 5.58 µM (active)
IC50 [9]: 10.9 µM (inactive)
IC50 [10]: > 69.5 µM (inactive)

Nc1[nH]c(C(=O)c2ccc(Br)cc2)c(-c2ccccn2)c1C(=O)NCCc1c[nH]c2ccccc12
IC50 [9]: > 69.5 µM (inactive)
IC50 [10]: 16.4 µM (inactive)

COc1ccc(CC(=O)Oc2ccc(C)cc2Br)cc1OC
IC50 [11]: 6.87 µM (active)

CN(C)c1ccc2c(c1)OC(N)=C(C#N)C2c1cccc(F)c1 (stereo not given)
EC50 [12]: < 0.1 µM (active)
EC50 [13]: 0.228 µM (active)
EC50 (cells [14]): 0.233 µM (active)
EC50 [15]: < 0.1 µM (active)
EC50 [16]: < 0.1 µM (active)
EC50 [17]: 0.338 µM (active)
IC50 [18]: 40.4 µM (inactive)

Oc1nc2ccccc2n1C1CCN(C(c2nnnn2C2CCCC2)C2CC2)CC1 (stereo not given)
IC50 [11]: 17.3 µM (inactive)

COc1cc(/C=N/NC(=O)CSc2ccccn2)ccc1OC(C)C
IC50 [11]: 19.1 µM (inactive)

C[C@@H]1CN([C@H](C)CO)C(=O)c2cc(NC(=O)Cc3ccccc3)ccc2O[C@@H](C)CCCCO[C@H]1CN(C)Cc1ccc(Cl)c(Cl)c1
AC50 [1]: 28.2 µM (active)
AC50 [2]: > 70 µM (inactive)

CCOC(=O)c1c(NC(=O)CCN2CCOCC2)sc(C)c1-c1ccccc1
CC50 [19]: > 40 µM (active)

Cc1cc(C)c([N+](=O)[O-])cc1-c1ccc(/C=N/c2c(-c3ccco3)nc3ccccn23)o1
EC50 [20]: 8.26 µM (active)
EC50 [21]: 12 µM (active)
EC50 (H4): 14.8 µM (active)
CC50 [19]: 31.6 µM (active)

O=C(OCc1cnc(Cl)s1)c1cccc(Cl)c1Cl
IC50 [9]: > 69.6 µM (inactive)
IC50 [10]: > 69.6 µM (inactive)

OC(c1ccc(F)c(F)c1)c1nc(-c2cccc(C(F)(F)F)c2)cs1 (stereo not given)
IC50 [9]: 50.5 µM (inactive)
IC50 [10]: 12.1 µM (inactive)

CCOc1ccc2[nH]c(C(=O)N/N=C/c3ccc(OC)cc3)cc2c1
EC50 [12]: 7.08 µM (active)
EC50 [13]: 1.12 µM (active)
EC50 (cells [14]): 1.4 µM (active)
EC50 [15]: 0.273 µM (active)
EC50 [16]: < 0.1 µM (active)
EC50 [17]: 3.25 µM (active)

COc1cc(/C=C(\C#N)c2ccccn2)ccc1OCc1ccccc1
IC50 [9]: > 69.5 µM (inactive)
IC50 [10]: > 69.5 µM (inactive)

O=C(Nc1ccncc1)C1CCN(S(=O)(=O)c2c(Cl)cccc2Cl)CC1
CC50 [19]: > 40 µM (active)

Cc1ccc(C(=O)NNC(=S)NC(=O)c2ccccc2)cc1
EC50 [22]: 1.47 µM (active)
EC50 (Streptococcus): 4.44 µM (active)
IC50 (Beta-galactosidase): > 66.6 µM (inactive)
EC50 [23]: 2.66 µM (active)
IC50 (Vero [5]): 12 µM (active)
CC50 (Vero [24]): 24.8 µM (active)

CC12CCC(=O)N1C(C(=O)N1CCN(S(=O)(=O)c3ccc(Br)cc3Cl)CC1)CS2 (stereo not given)
IC50 [11]: 17 µM (inactive)

CCCCN(CCCC)CCCN1CC(=O)N2[C@@H](Cc3c([nH]c4ccccc34)C2(C)C)C1=O
CC50 [19]: > 40 µM (active)

Nc1ccccc1C=C1Cc2ccccc2C1=O
IC50 [25]: > 67.6 µM (inactive)

CCOc1ccc(-n2c(SCC(=O)Nc3cc(C)c(NC(=O)c4ccccc4)cc3OC)nnc2-c2cccs2)cc1
IC50 [9]: > 69.5 µM (inactive)
IC50 [10]: > 69.5 µM (inactive)

Cn1c(-c2c(N)n(-c3ccccc3)c3nc4ccccc4nc23)nc2ccccc21
IC50 (CHO): > 49.7 µM (inactive)
IC50 (Beta Lactamase): 3.85 µM (active)

O=C(CCCN1C(=O)/C(=C\c2ccco2)SC1=S)Nc1cccc2ccccc12
CC50 [19]: 29 µM (active)

CC(=O)c1cccc(-c2ccnc3c2CC(C(=O)NCc2ccc(N4CCN(C)CC4)cc2)O3)c1 (stereo not given)
IC50 [11]: 29.9 µM (inactive)

Cc1cc(C2=NN=C(NC3CC3)SC2)c(C)n1-c1ccccc1F
EC50 [12]: < 0.1 µM (active)
EC50 [13]: 0.005 µM (active)
EC50 (cells [14]): 0.016 µM (active)
EC50 [15]: < 0.1 µM (active)
EC50 [16]: < 0.1 µM (active)
EC50 [26]: 17.1 µM (active)
EC50 [27]: 16.7 µM (active)
EC50 [17]: 0.004 µM (active)
AC50 [28]: < 0.26 µM (active)
AC50 [29]: 28 µM (active)
AC50 [30]: 6.07 µM (active)
AC50 (Paired box protein Pax-8): < 0.26 µM (active)
